US9253985B2, “Herbicidal composition for tolerant or resistant cereal crops” (priority 2010, dated 2016)
Like-named read-outs stand apart in the source and are kept apart here.

Tests used:
Assay type in all cases: in vivo
[1] = tested on: Viola arvensis; experiment: Greenhouse trial: herbicidal efficacy, Viola arvensis; settings: post-emergence 2-4-leaf, 14 days after application, g of ai/ha: A1.1 100, B1.1 5, C7 100, C25 1.25, C52 2.5, C43 100, C57 5, mixtures at same rates
Description: (§1) The trials were carried out under greenhouse conditions (test pots, diameter 8 cm, spray application using 300 l of water/hectare, 2 repetitions, 6 to 8 plants per pot).
(§2) At the time of application, the harmful plants were at the 2-4-leaf growth stage.

[2] = tested on: Brassica napus (volunteer weed); experiment: Greenhouse trial: herbicidal efficacy, Brassica napus; settings: post-emergence 2-4-leaf, 14 days after application, g of ai/ha: A1.1 100, B1.1 5, C12 12.5, C18 50, mixtures at same rates
Description: as §1
(§3) At the time of application, the harmful plants were at the 2-4-leaf growth stage. The application rates of the herbicidally active compounds used on their own or in combinations are listed in the results tables.
(§4) Scoring was by visual comparison of the treated with the untreated controls (0-100% scale, 14 days after the application. The results (means for all plants per pot and means of two repetitions per pot and treatment) are listed in Tables 4 to 8 below.
(§5) 4.2 Abbreviations used in Tables 4 to 6application rate g/ai=application rate in grams of active compound per hectare • ai=active ingredient (of an active compound content of 100%) • GA=glufosinate-ammonium • wheat tolerant • to GA=GA-tolerant wheat (GMO) • E^C=expected value according to Colby, (E^C=A+B−A×B/100)= • =for ternary combinations: (A+B)+C−(A+B)×C/100 • E^A=expected value according to the addition method (E^A=A+B) • Δ=difference (%) between observed value —%—vs. expected value (%) (observed value minus expected value) • examination: observed values for (A), (B) and (A)+(B) in % • scoring: observed value (%) greater>than E^C/E^A:->synergism (+Δ) • observed value (%) equal to =E^C/E^A->additive effect (+−0Δ) • observed value (%) smaller<than E^A/E^C->antagonism (−Δ)

[3] = tested on: Lolium multiflorum; experiment: Greenhouse trial: herbicidal efficacy, Lolium multiflorum; settings: post-emergence 2-4-leaf, 14 days after application, g of ai/ha: A1.1 100, B1.1 5, C62 1.25, C4 60, mixtures at same rates
Description: as §1, §3, §4, §5

[4] = tested on: Matricaria chamomilla; experiment: Greenhouse trial: herbicidal efficacy, Matricaria chamomilla; settings: post-emergence 2-4-leaf, 14 days after application, g of ai/ha: A1.1 100, B1.1 5, C5 1.25, C24 12.5, C9 7.5, C32 62.5, C37 5, C58 5, C60 10, C61 25, C66 0.375, C71 0.5, C74 0.375, C42 125, mixtures at same rates
Description: as §1, §3, §4, §5

[5] = tested on: wheat (GA-tolerant)
Description: as §1, §2

[6] = tested on: Setaria viridis; experiment: Greenhouse trial: herbicidal efficacy, Setaria viridis; settings: post-emergence 2-4-leaf, 14 days after application
Description: as §1, §3, §4, §5

[7] = Table 4, greenhouse, post-emergence, 14 days after application, g of ai/ha: A1.1 100, B1.1 5, C5 1.25, C24 12.5, C9 7.5, C32 62.5, C37 5, C58 5, C60 10, C61 25, C66 0.375, C71 0.5, C74 0.375, C42 125, mixtures at same rates
[8] = Table 5, greenhouse, post-emergence, 14 days after application, g of ai/ha: A1.1 100, B1.1 5, C7 100, C25 1.25, C52 2.5, C43 100, C57 5, mixtures at same rates
[9] = Table 6, greenhouse, post-emergence, 14 days after application, g of ai/ha: A1.1 100, B1.1 5, C12 12.5, C18 50, mixtures at same rates
[10] = Table 7, greenhouse, post-emergence, 14 days after application, g of ai/ha: A1.1 100, line r12 5, C28 50, C40 1, C43 100, C13 50, mixtures (100 + 5) + partner rate
[11] = Table 8, greenhouse, post-emergence, 14 days after application, g of ai/ha: A1.1 100, B1.1 5, C62 1.25, C4 60, mixtures at same rates
[12] = g of ai/ha: A1.1 100, line r12 5, C28 50, C40 1, C43 100, C13 50, mixtures (100 + 5) + partner rate

CP(=O)(O)CCC(N)C(=O)O (stereo not drawn) [(A1.1) GA, glufosinate-ammonium]
Herbicidal efficacy (%) Viola arvensis [1]: 50% | Herbicidal efficacy (%) Brassica napus [2]: 15% | Herbicidal efficacy (%) Lolium multiflorum [3]: 15% | Herbicidal efficacy (%) Matricaria chamomilla [4]: 50% | Damage to crop plants (%) wheat (GA-tolerant) [5, 7]: 10% | Damage to crop plants (%) wheat (GA-tolerant) [5, 8]: 10% | Damage to crop plants (%) wheat (GA-tolerant) [5, 9]: 10% | Damage to crop plants (%) wheat (GA-tolerant) [5, 10]: 10% | Damage to crop plants (%) wheat (GA-tolerant) [5, 11]: 10% | Herbicidal efficacy (%) Setaria viridis ([6]; g of ai/ha: A1.1 100, C28 50, C40 1, C43 100, C13 50, mixtures (100 + 5) + partner rate): 90%

COC(=O)c1nc(-c2ccc(Cl)c(OC)c2F)cc(N)c1Cl [(B1.1), methyl 4-amino-3-chloro-6-(4-chloro-2-fluoro-3-methoxyphenyl)pyridine-2-carboxylate]
Herbicidal efficacy (%) Viola arvensis [1]: 50% | Herbicidal efficacy (%) Brassica napus [2]: 60% | Herbicidal efficacy (%) Lolium multiflorum [3]: 0% | Herbicidal efficacy (%) Matricaria chamomilla [4]: 20% | Damage to crop plants (%) wheat (GA-tolerant) ([5]; in vivo): 0%

CCOC(=O)C1=NN(c2ccc(Cl)cc2Cl)C(C)(C(=O)OCC)C1 (stereo not drawn) [(C4) mefenpyr-di-et, mefenpyr(-diethyl)]
Herbicidal efficacy (%) Lolium multiflorum [3]: 0% | Damage to crop plants (%) wheat (GA-tolerant) [5, 11]: 0%

COc1cc(OC)nc(NC(=O)NS(=O)(=O)N(C)S(C)(=O)=O)n1 [(C5) amidosulfuron, amidosulfuron]
Herbicidal efficacy (%) Matricaria chamomilla [4]: 45% | Damage to crop plants (%) wheat (GA-tolerant) ([5]; in vivo): 0%

N#Cc1cc(Br)c(O)c(Br)c1 [(C7) bromoxynil, bromoxynil]
Herbicidal efficacy (%) Viola arvensis [1]: 20% | Damage to crop plants (%) wheat (GA-tolerant) [5, 8]: 0%

CCOC(=O)C(Cl)Cc1cc(-n2nc(C)n(C(F)F)c2=O)c(F)cc1Cl (stereo not drawn) [(C9) carfentrazone, carfentrazone-ethyl]
Herbicidal efficacy (%) Matricaria chamomilla [4]: 0% | Damage to crop plants (%) wheat (GA-tolerant) [5, 7]: 10%

C#CCOC(=O)[C@@H](C)Oc1ccc(Oc2ncc(Cl)cc2F)cc1 [(C12) clodinafop, clodinafop-propargyl]
Herbicidal efficacy (%) Brassica napus [2]: 0% | Damage to crop plants (%) wheat (GA-tolerant) ([5]; in vivo): 0%

O=C(O)COc1ccc(Cl)cc1Cl [(C13) 2,4-D, 2,4-D]
Damage to crop plants (%) wheat (GA-tolerant) [5, 10]: 0% | Herbicidal efficacy (%) Setaria viridis [6, 12]: 0%

O=C(Nc1ccc(F)cc1F)c1cccnc1Oc1cccc(C(F)(F)F)c1 [(C18) diflufenican, diflufenican]
Herbicidal efficacy (%) Brassica napus [2]: 30% | Damage to crop plants (%) wheat (GA-tolerant) [5, 9]: 10%

CCOC(=O)[C@@H](C)Oc1ccc(Oc2nc3ccc(Cl)cc3o2)cc1 [(C24) fenoxaprop-p-et., fenoxaprop-P-ethyl]
Herbicidal efficacy (%) Matricaria chamomilla [4]: 0% | Damage to crop plants (%) wheat (GA-tolerant) [5, 7]: 0%

COc1ncc(F)c2nc(S(=O)(=O)Nc3c(F)cccc3F)nn12 [(C25) florasulam, florasulam]
Herbicidal efficacy (%) Viola arvensis [1]: 20% | Damage to crop plants (%) wheat (GA-tolerant) [5, 8]: 0%

CC(C)N(C(=O)COc1nnc(C(F)(F)F)s1)c1ccc(F)cc1 [(C28) flufenacet, flufenacet (thiafluamide)]
Herbicidal efficacy (%) Setaria viridis [6, 12]: 20%

CNC1=C(c2cccc(C(F)(F)F)c2)C(=O)C(c2ccccc2)O1 (stereo not drawn) [(C32) flurtamone, flurtamone]
Herbicidal efficacy (%) Matricaria chamomilla [4]: 25% | Damage to crop plants (%) wheat (GA-tolerant) [5, 7]: 15%

COCc1cnc(C2=NC(C)(C(C)C)C(=O)N2)c(C(=O)O)c1 (stereo not drawn) [(C37) imazamox, imazamox]
Herbicidal efficacy (%) Matricaria chamomilla [4]: 0% | Damage to crop plants (%) wheat (GA-tolerant) [5, 7]: 15%

COC(=O)c1ccc(I)cc1S(=O)(=O)[N-]C(=O)Nc1nc(C)nc(OC)n1.[Na+] [(C40) iodosulfuron-me-Na, iodosulfuron-methyl-sodium]
Damage to crop plants (%) wheat (GA-tolerant) [5, 10]: 0% | Herbicidal efficacy (%) Setaria viridis [6, 12]: 10%

CC(C)c1ccc(NC(=O)N(C)C)cc1 [(C42) isoproturon, isoproturon]
Herbicidal efficacy (%) Matricaria chamomilla [4]: 15% | Damage to crop plants (%) wheat (GA-tolerant) ([5]; in vivo): 0%

Cc1cc(Cl)ccc1OCC(=O)O [(C43) MCPA, MCPA]
Herbicidal efficacy (%) Viola arvensis [1]: 10% | Damage to crop plants (%) wheat (GA-tolerant) [5, 8]: 0% | Damage to crop plants (%) wheat (GA-tolerant) [5, 10]: 0% | Herbicidal efficacy (%) Setaria viridis [6, 12]: 0%

COC(=O)c1ccc(CNS(C)(=O)=O)cc1S(=O)(=O)NC(=O)Nc1nc(OC)cc(OC)n1 [(C52) mesosulfuron-me, mesosulfuron-methyl]
Herbicidal efficacy (%) Viola arvensis [1]: 0% | Damage to crop plants (%) wheat (GA-tolerant) ([5]; in vivo): 0%

COc1cnc(OC)n2nc(NS(=O)(=O)c3c(OCC(F)F)cccc3C(F)(F)F)nc12 [(C57) penoxulam, penoxsulam]
Herbicidal efficacy (%) Viola arvensis [1]: 5% | Damage to crop plants (%) wheat (GA-tolerant) ([5]; in vivo): 0%

CCc1cc(C)cc(CC)c1-c1c(OC(=O)C(C)(C)C)n2n(c1=O)CCOCC2 [(C58) pinoxaden, pinoxaden]
Herbicidal efficacy (%) Matricaria chamomilla [4]: 0% | Damage to crop plants (%) wheat (GA-tolerant) [5, 7]: 0%

CCCOc1nn(C(=O)[N-]S(=O)(=O)c2ccccc2C(=O)OC)c(=O)n1C.[Na+] [(C60) propoxycarbazone-Na, propoxycarbazone-sodium]
Herbicidal efficacy (%) Matricaria chamomilla [4]: 10% | Damage to crop plants (%) wheat (GA-tolerant) [5, 7]: 10%

Cc1nn(C)c(O)c1C(=O)c1ccc(C(F)(F)F)cc1S(C)(=O)=O [(C61) pyrasulfutole, pyrasulfutole]
Herbicidal efficacy (%) Matricaria chamomilla [4]: 50% | Damage to crop plants (%) wheat (GA-tolerant) ([5]; in vivo): 0%

COc1cc(OC)n2nc(NS(=O)(=O)c3c(C(F)(F)F)ccnc3OC)nc2n1 [(C62) pyroxulam, pyroxsulam]
Herbicidal efficacy (%) Lolium multiflorum [3]: 40% | Damage to crop plants (%) wheat (GA-tolerant) ([5]; in vivo): 10%

COC(=O)c1csc(C)c1S(=O)(=O)NC(=O)n1nc(OC)n(C)c1=O [(C66) thiencarbazone-me, thiencarbazone-methyl]
Herbicidal efficacy (%) Matricaria chamomilla [4]: 10% | Damage to crop plants (%) wheat (GA-tolerant) ([5]; in vivo): 5%

COc1nc(C)nc(N(C)C(=O)NS(=O)(=O)c2ccccc2C(=O)O)n1 [(C71) tribenuron, tribenuron]
Herbicidal efficacy (%) Matricaria chamomilla [4]: 0% | Damage to crop plants (%) wheat (GA-tolerant) [5, 7]: 0%

COc1nc(C)nc(=NC(=O)NS(=O)(=O)c2ccccc2C(=O)O)[nH]1 [(C74) metsulfuron, metsulfuron]
Damage to crop plants (%) wheat (GA-tolerant) [5, 7]: 0%
